Assay results reported in publication PMC3792642 (Acta Crystallographica Section D: Biological Crystallography, 2013).
Peptide text beside a SMILES is read from it.

System: MtbDsbA catalytic Cys89 to Ala mutant
Type: binding, Mycobacterium tuberculosis H37Rv
Details: ITC, under the conditions tested

CC(=O)N[C@@H](Cc1ccc(O)cc1)C(=O)N[C@H](C(=O)N1CCC[C@H]1C(=O)N[C@@H](CO)C(=O)N[C@@H](CS)C(=O)N[C@@H](CC(N)=O)C(=O)N[C@H](C(N)=O)C(C)C)C(C)C [YVPSCNV] (Ac-YVPSCNV-NH2)
Binding of VKOR peptide to the MtbDsbA catalytic Cys89 to Ala mutant: abolished binding
